Measurements taken from patent US10004701B2, “Methods and compositions for treating infection” (UNIVERSITY OF ROCHESTER, priority 2012, dated 2018).
Where a name gives a salt, the structure may show the parent alone. Read-outs that look alike come from different tables or passages of the source.

Assays:
Assay in all cases: AK assay 384-well format, Prestwick library screening
E. faecium = type: cell-based, Enterococcus faecium; conditions: 50 μM final drug concentration; for fold induction at 50 µM: Enterococcus faecium, 3 h
E. coli = type: cell-based, Escherichia coli; conditions: 50 μM final drug concentration; for fold induction at 50 µM: Escherichia coli, 3 h
[1] = tested on: A. baumannii strain 98-37-09; type: cell-based, Acinetobacter baumannii; conditions: 50 μM final drug concentration; for fold induction at 50 µM: Acinetobacter baumannii, 983709, 3 h
K. pneumoniae = type: cell-based, Klebsiella pneumoniae; conditions: 50 μM final drug concentration; for fold induction at 50 µM: Klebsiella pneumoniae, 3 h
[2] = tested on: S. aureus strain USA300-0114; type: cell-based, Staphylococcus aureus; conditions: 50 μM final drug concentration; for fold induction at 50 µM: Staphylococcus aureus, USA300, 3 h
P. aeruginosa = type: cell-based, Pseudomonas aeruginosa; conditions: 50 μM final drug concentration; for fold induction at 50 µM: Pseudomonas aeruginosa, 3 h
E. cloacae = type: cell-based, Enterobacter cloacae; conditions: 50 μM final drug concentration; for fold induction at 50 µM: Enterobacter cloacae, 3 h
[3] = 384-well format, cutoff for positive-scoring molecules 3-fold increase
[4] = planktonic E. faecium, cutoff for positive-scoring molecules 3-fold increase, read-out: AK-based Prestwick Library Screening Results, E. faecium (increase in extracellular AK activity)
[5] = planktonic E. coli, cutoff for positive-scoring molecules 3-fold increase, read-out: AK-based Prestwick Library Screening Results, E. coli (increase in extracellular AK activity)
[6] = planktonic A. baumannii, cutoff for positive-scoring molecules 3-fold increase, read-out: AK-based Prestwick Library Screening Results, A. baumannii (increase in extracellular AK activity)
[7] = planktonic K. pneumoniae, cutoff for positive-scoring molecules 3-fold increase, read-out: AK-based Prestwick Library Screening Results, K. pneumoniae (increase in extracellular AK activity)
[8] = planktonic S. aureus, cutoff for positive-scoring molecules 3-fold increase, read-out: AK-based Prestwick Library Screening Results, S. aureus (increase in extracellular AK activity)
[9] = planktonic P. aeruginosa, cutoff for positive-scoring molecules 3-fold increase, read-out: AK-based Prestwick Library Screening Results, P. aeruginosa (increase in extracellular AK activity)
[10] = planktonic E. cloacae, cutoff for positive-scoring molecules 3-fold increase, read-out: AK-based Prestwick Library Screening Results, E. cloacae (increase in extracellular AK activity)
[11] = planktonic E. faecium, positive cutoff 3-fold increase, read-out: AK-based Prestwick library screening result, E. faecium (fold increase in extracellular AK activity)
[12] = planktonic E. coli, positive cutoff 3-fold increase, read-out: AK-based Prestwick library screening result, E. coli (fold increase in extracellular AK activity)
[13] = planktonic A. baumannii, positive cutoff 3-fold increase, read-out: AK-based Prestwick library screening result, A. baumannii (fold increase in extracellular AK activity)
[14] = planktonic K. pneumoniae, positive cutoff 3-fold increase, read-out: AK-based Prestwick library screening result, K. pneumoniae (fold increase in extracellular AK activity)
[15] = planktonic S. aureus, positive cutoff 3-fold increase, read-out: AK-based Prestwick library screening result, S. aureus (fold increase in extracellular AK activity)
[16] = planktonic P. aeruginosa, positive cutoff 3-fold increase, read-out: AK-based Prestwick library screening result, P. aeruginosa (fold increase in extracellular AK activity)
[17] = planktonic E. cloacae, positive cutoff 3-fold increase, read-out: AK-based Prestwick library screening result, E. cloacae (fold increase in extracellular AK activity)

Compound: C[C@]12CCC(=O)C=C1CC[C@@H]1[C@@H]2C(=O)C[C@@]2(C)[C@H]1CC[C@]2(O)C(=O)CO [Cortisone]
- AK-based Prestwick Library Screening Results, E. faecium (increase in extracellular AK activity) (E. faecium; [3]): 0.9
- AK-based Prestwick Library Screening Results, E. coli (increase in extracellular AK activity) (E. coli; [3]): 0.9
- AK-based Prestwick Library Screening Results, A. baumannii (increase in extracellular AK activity) [1, 3]: 1.0
- AK-based Prestwick Library Screening Results, K. pneumoniae (increase in extracellular AK activity) (K. pneumoniae; [3]): 0.8
- AK-based Prestwick Library Screening Results, S. aureus (increase in extracellular AK activity) [2, 3]: 0.8
- AK-based Prestwick Library Screening Results, P. aeruginosa (increase in extracellular AK activity) (P. aeruginosa; [3]): 1.0
- AK-based Prestwick Library Screening Results, E. cloacae (increase in extracellular AK activity) (E. cloacae; [3]): 1.2

Compound: COC(=O)[C@H]1[C@H]2C[C@H]3c4[nH]c5ccccc5c4CCN3C[C@@H]2CC[C@@H]1O.Cl [Corynanthine hydrochloride]
- AK-based Prestwick Library Screening Results, E. faecium (increase in extracellular AK activity) (E. faecium; planktonic E. faecium, cutoff for positive-scoring molecules 3-fold increase): 1.0
- AK-based Prestwick Library Screening Results, E. coli (increase in extracellular AK activity) (E. coli; planktonic E. coli, cutoff for positive-scoring molecules 3-fold increase): 0.7
- AK-based Prestwick Library Screening Results, A. baumannii (increase in extracellular AK activity) ([1]; planktonic A. baumannii, cutoff for positive-scoring molecules 3-fold increase): 0.6
- AK-based Prestwick Library Screening Results, K. pneumoniae (increase in extracellular AK activity) (K. pneumoniae; planktonic K. pneumoniae, cutoff for positive-scoring molecules 3-fold increase): 0.6
- AK-based Prestwick Library Screening Results, S. aureus (increase in extracellular AK activity) ([2]; planktonic S. aureus, cutoff for positive-scoring molecules 3-fold increase): 0.7
- AK-based Prestwick Library Screening Results, P. aeruginosa (increase in extracellular AK activity) (P. aeruginosa; planktonic P. aeruginosa, cutoff for positive-scoring molecules 3-fold increase): 0.7
- AK-based Prestwick Library Screening Results, E. cloacae (increase in extracellular AK activity) (E. cloacae; planktonic E. cloacae, cutoff for positive-scoring molecules 3-fold increase): 0.8

Compound: O=C(O)c1cc(=O)c2c(OCC(O)COc3cccc4oc(C(=O)O)cc(=O)c34)cccc2o1 [Cromolyn disodium salt]
- fold induction at 50 µM (E. faecium; planktonic, cutoff for positive-scoring molecules 3-fold increase, read-out: AK-based Prestwick Library Screening Results, E. faecium (fold increase in extracellular AK activity)): 0.9
- fold induction at 50 µM (E. coli; planktonic, cutoff for positive-scoring molecules 3-fold increase, read-out: AK-based Prestwick Library Screening Results, E. coli (fold increase in extracellular AK activity)): 0.7
- fold induction at 50 µM ([1]; planktonic, cutoff for positive-scoring molecules 3-fold increase, read-out: AK-based Prestwick Library Screening Results, A. baumannii (fold increase in extracellular AK activity)): 0.9
- fold induction at 50 µM (K. pneumoniae; planktonic, cutoff for positive-scoring molecules 3-fold increase, read-out: AK-based Prestwick Library Screening Results, K. pneumoniae (fold increase in extracellular AK activity)): 0.7
- fold induction at 50 µM ([2]; planktonic, cutoff for positive-scoring molecules 3-fold increase, read-out: AK-based Prestwick Library Screening Results, S. aureus (fold increase in extracellular AK activity)): 0.7
- fold induction at 50 µM (P. aeruginosa; planktonic, cutoff for positive-scoring molecules 3-fold increase, read-out: AK-based Prestwick Library Screening Results, P. aeruginosa (fold increase in extracellular AK activity)): 0.8
- fold induction at 50 µM (E. cloacae; planktonic, cutoff for positive-scoring molecules 3-fold increase, read-out: AK-based Prestwick Library Screening Results, E. cloacae (fold increase in extracellular AK activity)): 1

Compound: CC=CC(=O)N(CC)c1ccccc1C [Crotamiton]
- AK-based Prestwick Library Screening Results, E. faecium (fold increase in extracellular AK activity) (E. faecium; […]): 1.1
- AK-based Prestwick Library Screening Results, E. coli (fold increase in extracellular AK activity) (E. coli; […]): 1.5
- AK-based Prestwick Library Screening Results, A. baumannii (fold increase in extracellular AK activity) ([1]; […]): 1.3
- AK-based Prestwick Library Screening Results, K. pneumoniae (fold increase in extracellular AK activity) (K. pneumoniae; […]): 1.1
- AK-based Prestwick Library Screening Results, S. aureus (fold increase in extracellular AK activity) ([2]; […]): 1.3
- AK-based Prestwick Library Screening Results, P. aeruginosa (fold increase in extracellular AK activity) (P. aeruginosa; […]): 1.3
- AK-based Prestwick Library Screening Results, E. cloacae (fold increase in extracellular AK activity) (E. cloacae; […]): 1.3

Compound: CN1CCN(C(c2ccccc2)c2ccccc2)CC1 [Cyclizine hydrochloride]
- fold induction at 50 µM (E. faecium; [4]): 1
- fold induction at 50 µM (E. coli; [5]): 0.9
- fold induction at 50 µM [1, 6]: 1
- fold induction at 50 µM (K. pneumoniae; [7]): 0.8
- fold induction at 50 µM [2, 8]: 0.9
- fold induction at 50 µM (P. aeruginosa; [9]): 0.9
- fold induction at 50 µM (E. cloacae; [10]): 0.9

Compound: CN(C)CCC=C1c2ccccc2C=Cc2ccccc21 [Cyclobenzaprine hydrochloride]
- fold induction at 50 µM (E. faecium; [4]): 1
- fold induction at 50 µM (E. coli; [5]): 1.3
- fold induction at 50 µM [1, 6]: 1.2
- fold induction at 50 µM (K. pneumoniae; [7]): 0.9
- fold induction at 50 µM [2, 8]: 1
- fold induction at 50 µM (P. aeruginosa; [9]): 1.1
- fold induction at 50 µM (E. cloacae; [10]): 1.2

Compound: C[C@@H]1C[C@@H]([C@H](O)CC2CC(=O)NC(=O)C2)C(=O)[C@@H](C)C1 [Cycloheximide]
- fold induction at 50 µM (E. faecium; […], read-out: AK-based Prestwick Library Screening Results, E. faecium (fold increase in extracellular AK activity)): 1
- fold induction at 50 µM (E. coli; […], read-out: AK-based Prestwick Library Screening Results, E. coli (fold increase in extracellular AK activity)): 1.3
- fold induction at 50 µM ([1]; […], read-out: AK-based Prestwick Library Screening Results, A. baumannii (fold increase in extracellular AK activity)): 1.2
- fold induction at 50 µM (K. pneumoniae; […], read-out: AK-based Prestwick Library Screening Results, K. pneumoniae (fold increase in extracellular AK activity)): 1
- fold induction at 50 µM ([2]; […], read-out: AK-based Prestwick Library Screening Results, S. aureus (fold increase in extracellular AK activity)): 1.1
- fold induction at 50 µM (P. aeruginosa; […], read-out: AK-based Prestwick Library Screening Results, P. aeruginosa (fold increase in extracellular AK activity)): 1.1
- fold induction at 50 µM (E. cloacae; […], read-out: AK-based Prestwick Library Screening Results, E. cloacae (fold increase in extracellular AK activity)): 0.9

Compound: NS(=O)(=O)c1cc2c(cc1Cl)NC(CC1CCCC1)NS2(=O)=O (centres unmarked) [Cyclopenthiazide]
- fold induction at 50 µM (E. faecium; [11]): 0.9
- fold induction at 50 µM (E. coli; [12]): 0.8
- fold induction at 50 µM [1, 13]: 0.8
- fold induction at 50 µM (K. pneumoniae; [14]): 0.8
- fold induction at 50 µM [2, 15]: 0.7
- fold induction at 50 µM (P. aeruginosa; [16]): 0.8
- fold induction at 50 µM (E. cloacae; [17]): 1.2

Compound: CN(C)CCOC(=O)C(c1ccccc1)C1(O)CCCC1 (centres unmarked) [Cyclopentolate hydrochloride]
- fold induction at 50 µM (E. faecium; [11]): 1
- fold induction at 50 µM (E. coli; [12]): 1.2
- fold induction at 50 µM [1, 13]: 1
- fold induction at 50 µM (K. pneumoniae; [14]): 1
- fold induction at 50 µM [2, 15]: 1.1
- fold induction at 50 µM (P. aeruginosa; [16]): 1.1
- fold induction at 50 µM (E. cloacae; [17]): 1.3

Compound: CN1CCC(=C2c3ccccc3C=Cc3ccccc32)CC1 [Cyproheptadine hydrochloride]
- fold induction at 50 µM (E. faecium; 384-well format, cutoff for positive-scoring molecules 3-fold increase, read-out: AK-based Prestwick Library Screening Results, E. faecium (increase in extracellular AK activity)): 0.9
- fold induction at 50 µM (E. coli; 384-well format, cutoff for positive-scoring molecules 3-fold increase, read-out: AK-based Prestwick Library Screening Results, E. coli (increase in extracellular AK activity)): 0.9
- fold induction at 50 µM ([1]; 384-well format, cutoff for positive-scoring molecules 3-fold increase, read-out: AK-based Prestwick Library Screening Results, A. baumannii (increase in extracellular AK activity)): 0.9
- fold induction at 50 µM (K. pneumoniae; 384-well format, cutoff for positive-scoring molecules 3-fold increase, read-out: AK-based Prestwick Library Screening Results, K. pneumoniae (increase in extracellular AK activity)): 0.6
- fold induction at 50 µM ([2]; 384-well format, cutoff for positive-scoring molecules 3-fold increase, read-out: AK-based Prestwick Library Screening Results, S. aureus (increase in extracellular AK activity)): 0.6
- fold induction at 50 µM (P. aeruginosa; 384-well format, cutoff for positive-scoring molecules 3-fold increase, read-out: AK-based Prestwick Library Screening Results, P. aeruginosa (increase in extracellular AK activity)): 0.9
- fold induction at 50 µM (E. cloacae; 384-well format, cutoff for positive-scoring molecules 3-fold increase, read-out: AK-based Prestwick Library Screening Results, E. cloacae (increase in extracellular AK activity)): 0.9

Compound: CC(=O)O[C@]1(C(C)=O)CC[C@H]2[C@@H]3C=C(Cl)C4=CC(=O)[C@@H]5C[C@@H]5[C@]4(C)[C@H]3CC[C@@]21C [Cyproterone acetate]
- fold induction at 50 µM (E. faecium; [11]): 1
- fold induction at 50 µM (E. coli; [12]): 0.8
- fold induction at 50 µM [1, 13]: 0.8
- fold induction at 50 µM (K. pneumoniae; [14]): 0.7
- fold induction at 50 µM [2, 15]: 0.6
- fold induction at 50 µM (P. aeruginosa; [16]): 0.8
- fold induction at 50 µM (E. cloacae; [17]): 1.4
